Source: ChEMBL document CHEMBL5215006, “Antitumor Activity of Piceamycin by Upregulation of N-Myc Downstream-Regulated Gene 1 in Human Colorectal Cancer Cells” (J Nat Prod, 2022)
Active and inactive are the calls of the source. No cut-off for these calls is given here.

Assays:
[1] = tested on: SW480; experiment: Cell cycle arrest in human SW480 cells assessed as downregulation of cyclin-D1 protein expression at 0.35 to 1.4 uM incubated for 24 hrs by immunoblotting assay; format: functional, cell-based; conditions: dose 0.35-1.4 µM
[2] = tested on: SW480; experiment: Cell cycle arrest in human SW480 cells assessed as accumulation at G2/M phase at 0.7 uM incubated for 24 hrs by RNaseA/propidium iodide staining based flow cytometry (reference value: 24.74 %); format: functional
[3] = tested on: HCT-116; experiment: Anti-migratory activity against human HCT-116 cells assessed as downregulation of N-cadherin gene expression at 0.075 to 0.3 uM incubated for 24 hrs by RT-PCR assay; format: functional, cell-based; conditions: dose 0.075-0.3 µM
[4] = tested on: SW480; experiment: Cell cycle arrest in human SW480 cells assessed as accumulation at S phase at 0.7 uM incubated for 24 hrs by RNaseA/propidium iodide staining based flow cytometry (reference value: 16.7 %); format: functional
[5] = tested on: HCT-116; experiment: Anti-migratory activity against human HCT-116 cells assessed as downregulation of Snail gene expression at 0.075 to 0.3 uM incubated for 24 hrs by RT-PCR assay; format: functional, cell-based; conditions: dose 0.075-0.3 µM
[6] = tested on: HCT-116; experiment: Cell cycle arrest in human HCT-116 cells assessed as accumulation at G0/G1 phase at 0.15 uM incubated for 24 hrs by RNaseA/propidium iodide staining based flow cytometry (reference value: 48.44 %); format: functional
[7] = tested on: HCT-116; experiment: Anti-migratory activity against human HCT-116 cells assessed as upregulation of E-cadherin gene expression at 0.075 to 0.3 uM incubated for 24 hrs by RT-PCR assay; format: functional, cell-based; conditions: dose 0.075-0.3 µM
[8] = tested on: SW480; experiment: Cell cycle arrest in human SW480 cells assessed as accumulation at G0/G1 phase at 1.4 uM incubated upto 48 hrs by RNaseA/propidium iodide staining based flow cytometry; format: functional
[9] = tested on: HCT-116; experiment: Upregulation of c-Myc protein expression in human HCT-116 cells with NDRG1 knockdown at 0.3 uM incubated for 24 hrs by immunoblotting assay; format: functional, cell-based
[10] = tested on: SW480; experiment: Anti-migratory activity against human SW480 cells assessed as downregulation of N-cadherin gene expression at 0.35 to 1.4 uM incubated for 24 hrs by RT-PCR assay; format: functional, cell-based; conditions: dose 0.35-1.4 µM
[11] = tested on: SW480; experiment: Cell cycle arrest in human SW480 cells assessed as downregulation of CDK6 protein expression at 0.35 to 1.4 uM incubated for 24 hrs by immunoblotting assay; format: functional, cell-based; conditions: dose 0.35-1.4 µM
[12] = tested on: HCT-116; experiment: Antitumor activity against human HCT-116 cells xenografted Balb/c mouse assessed as decrease in Ki67 protein expression at 1 mg/kg,ip administrated for 18 days by 3 times per week by immunoblotting assay; format: functional, organism-based; conditions: time 18.0 day
[13] = tested on: SW480; experiment: Inhibition of colony formation in human SW480 cells at 0.35 to 1.4 uM incubated for 72 hrs by crystal violet staining based assay; format: functional, cell-based; conditions: dose 0.35-1.4 µM, DDE = dose-dependent effect
[14] = tested on: HCT-116; experiment: Cell cycle arrest in human HCT-116 cells assessed as downregulation of CDK6 protein expression at 0.075 to 0.3 uM incubated for 24 hrs by immunoblotting assay; format: functional, cell-based; conditions: dose 0.075-0.3 µM
[15] = tested on: SW480; experiment: Induction of apoptosis in human SW480 cells assessed as downregulation of survivin expression at 1.4 uM measured at 12 to 48 hrs by immunoblotting assay; format: functional, cell-based; conditions: time 12-48 hrs, TDE = time-dependent effect
[16] = tested on: HCT-116; experiment: Antimigratory activity against highly liver metastatic human HCT-116 cells assessed as upregulation of E-cadherin gene expression at 0.075 to 0.3 uM incubated for 24 hrs by RT-PCR method; format: functional, cell-based; conditions: dose 0.075-0.3 µM
[17] = tested on: HCT-116; experiment: Antimigratory activity against highly liver metastatic human HCT-116 cells assessed as upregulation of NDRG1 protein expression at 0.075 to 0.3 uM incubated for 24 hrs by immunoblotting assay; format: functional, cell-based; conditions: dose 0.075-0.3 µM
[18] = tested on: HCT-116; experiment: Antitumor activity against human HCT-116 cells xenografted Balb/c mouse assessed as decrease in Ki67 protein expression at 3 mg/kg,ip administrated for 18 days by 3 times per week by immunoblotting assay; format: functional, organism-based; conditions: time 18.0 day
[19] = tested on: HCT-116; experiment: Cell cycle arrest in human HCT-116 cells assessed as accumulation at G0/G1 phase at 0.3 uM incubated upto 48 hrs by RNaseA/propidium iodide staining based flow cytometry; format: functional
[20] = tested on: SW480; experiment: Anti-migratory activity against human SW480 cells assessed as downregulation of N-cadherin protein expression at 0.35 to 1.4 uM incubated for 24 hrs by immunoblotting assay; format: functional, cell-based; conditions: dose 0.35-1.4 µM
[21] = tested on: HCT-116; experiment: Antitumor activity against human HCT-116 cells xenografted Balb/c mouse assessed as reduction in tumor growth at 3 mg/kg,ip administrated for 18 days by 3 times per week; format: functional; set-up: scale not given: the % may be the effect or the level left; conditions: time 18 day
[22] = tested on: HCT-116; experiment: Induction of apoptosis in human HCT-116 cells assessed as viable cells at 0.3 uM incubated for 48 hrs by Annexin V-FITC/PI staining based flow cytometry analysis (Rvb= 94.18%); format: functional; conditions: read-out: Activity
[23] = tested on: HCT-116; experiment: Cell cycle arrest in human HCT-116 cells assessed as accumulation at S phase at 0.075 uM incubated for 24 hrs by RNaseA/propidium iodide staining based flow cytometry (reference value: 19.94 %); format: functional
[24] = tested on: HCT-116; experiment: Anti-migratory activity against human HCT-116 cells assessed as upregulation of E-cadherin protein expression at 0.075 to 0.3 uM incubated for 24 hrs by immunoblotting assay; format: functional, cell-based; conditions: dose 0.075-0.3 µM
[25] = tested on: SW480; experiment: Induction of apoptosis in human SW480 cells assessed as late apoptotic cells at 0.7 uM incubated for 48 hrs by Annexin V-FITC/PI staining based flow cytometry analysis (Rvb= 5.26%); format: functional
[26] = tested on: SW480; experiment: Induction of apoptosis in human SW480 cells assessed as necrotic cells at 1.4 uM incubated for 48 hrs by Annexin V-FITC/PI staining based flow cytometry analysis (Rvb= 0.07%); format: functional
[27] = tested on: SW480; experiment: Cell cycle arrest in human SW480 cells assessed as accumulation at Sub-G1 phase at 0.7 uM incubated for 24 hrs by RNaseA/propidium iodide staining based flow cytometry (reference value: 3.2 %); format: functional
[28] = tested on: HCT-116; experiment: Cell cycle arrest in human HCT-116 cells assessed as accumulation at S phase at 0.3 uM incubated for 24 hrs by RNaseA/propidium iodide staining based flow cytometry (reference value: 19.94 %); format: functional
[29] = tested on: HCT-116; experiment: Antimigratory activity against highly liver metastatic human HCT-116 cells assessed as downregulation of Snail gene expression at 0.075 to 0.3 uM incubated for 24 hrs by RT-PCR method; format: functional, cell-based; conditions: dose 0.075-0.3 µM
[30] = tested on: SW480; experiment: Antitumor activity against human SW480 cells assessed as upregulation of NDRG1 protein expression at 0.35 to 1.4 uM incubated for 24 hrs by immunoblotting assay; format: functional, cell-based; conditions: dose 0.35-1.4 µM, DDE = dose-dependent effect
[31] = tested on: SW480; experiment: Induction of apoptosis in human SW480 cells assessed as necrotic cells at 0.7 uM incubated for 48 hrs by Annexin V-FITC/PI staining based flow cytometry analysis (Rvb= 0.07%); format: functional
[32] = tested on: HCT-116; experiment: Antimigratory activity against highly liver metastatic human HCT-116 cells assessed as upregulation of NDRG1 gene expression at 0.075 to 0.3 uM incubated for 24 hrs by RT-PCR method; format: functional, cell-based; conditions: dose 0.075-0.3 µM
[33] = tested on: SW480; experiment: Cell cycle arrest in human SW480 cells assessed as accumulation at G0/G1 phase at 1.4 uM incubated for 24 hrs by RNaseA/propidium iodide staining based flow cytometry (reference value: 54.49 %); format: functional
[34] = tested on: HCT-116; experiment: Downregulation of c-Myc protein expression in human HCT-116 cells at 0.3 uM incubated for 24 hrs by immunoblotting assay; format: functional, cell-based

With `C[C@@H]1\C=C/C=C/C=C\C=C\C=C\C(=O)C2=C(O)C(=O)C[C@@]2(C)/C=C/C=C\C=C/C(=O)NC1` as the compound, how does the Activity [1] read?
Its Activity is “Active”.

And the Activity [2]?
The Activity was 17.02%.

What about the Activity [3] of the same compound?
The Activity was “Active”.

What about the Activity [4] of the same compound?
Its Activity is 15.28%.

What about the Activity [5] of the same compound?
The Activity was “Active”.

And the Activity [6]?
Its Activity is 55.55%.

And the Activity [7]?
The Activity was “Active”.

And the Activity [8]?
The Activity was “Active”.

And the Activity [9]?
The Activity was “Active”.

What about the Activity [10] of the same compound?
Its Activity is “Active”.

And the Activity [11]?
Its Activity is “Active”.

What about the Activity [12] of the same compound?
Its Activity is “Active”.

And the inhibition [13]?
The inhibition was “Dde”.

And the Activity [14]?
The Activity was “Active”.

What about the Activity [15] of the same compound?
The Activity was “Tde”.

And the Activity [16]?
Its Activity is “Active”.

What about the Activity [17] of the same compound?
Its Activity is “Active”.

And the Activity [18]?
The Activity was “Active”.

And the Activity [19]?
The Activity was “Active”.

And the Activity [20]?
Its Activity is “Active”.

What about the Activity [21] of the same compound?
Its Activity is 89%.

What about the viability at 0.3 µM [22] of the same compound?
The viability at 0.3 µM was 40.1%.

And the Activity [23]?
The Activity was 18.4%.

And the Activity [24]?
The Activity was “Active”.

What about the Activity [25] of the same compound?
Its Activity is 17.78%.

What about the Activity [26] of the same compound?
The Activity was 0.19%.

And the Activity [27]?
The Activity was 4.68%.

What about the Activity [28] of the same compound?
Its Activity is 10.04%.

What about the Activity [29] of the same compound?
Its Activity is “Active”.

What about the Activity [30] of the same compound?
The Activity was “Dde”.

What about the Activity [31] of the same compound?
The Activity was 0.08%.

And the Activity [32]?
Its Activity is “Active”.

What about the Activity [33] of the same compound?
The Activity was 65.42%.

What about the Activity [34] of the same compound?
Its Activity is “Active”.
